From patent publication US20080033005A1, “METHODS FOR THE TREATMENT OF MULTIPLE SCLEROSIS” (AVENTIS PHARMACEUTICALS INC., priority 2004, published 2008)

What was measured:
SK-N-SH cells = conditions: U-0126 given with the tested compounds
Description: Cells from a human neuroblastoma cell line, SK-N-SH cells, were plated at 50,000 cells/well in Costar Biocoat 96-well poly-D-lysine coated plates in EMEM (Minimum Essential Medium Eagle with Earle's salts) containing penicillin/streptomycin, L-glutamine, sodium pyruvate, non-essential amino acids and sodium bicarbonate. Cells were grown overnight in a 37° C. incubator under 5% CO2. The next day, the medium was removed and replaced with fresh medium. Cells were pretreated with Serms for 1 hour, and SIN-1 (3-morpholinosydnonimine, which produces peroxynitrite) was added to give a final concentration of 2 or 10 mM. After 24 hours, the medium was removed and assayed for LDH activity using the Promega cytotox 96 kit (catalog# G1780). Results were calculated as percent protection against SIN-1 toxicity.

mature oligodendrocytes = experiment: Oligodendrocyte toxicity assay, mature oligodendrocytes (OL), SIN-1, LDH release; format: cell-based, rat; conditions: compound 10 nm, 1 hour pretreatment, Sin-1 10 mM, LDH after 24 hours
Description: (§1) Primary rat oligodendrocyte progenitor cells were obtained from the cerebra of 2-3 day old postnatal rats (Sprague Dawley). The meninges were removed and tissue was mechanically dissociated. Cells were plated on T75 flasks and fed with DMEM+10% FBS.
(§2) Enriched OLPs were collected by mechanical separation from the astrocytic monolayer and were expanded in serum free media (SFM) supplemented with the mitogens, PDGF-AA (10 ng/ml) and FGF-2 (10 ng/ml).
To generate mature oligodendrocytes, progenitor cells were switched to SFM supplemented with IGF-1 (10 ng/ml) 24 hours after plating and cells were grown under these conditions for 7 days prior to experimental assays.
(§3) Cells were plated in 96-well plates, 10,000 per well. Medium was changed to fresh medium and cells were pretreated with compounds for 1 hour. Toxins were added to give the following final concentrations: • Sin-1 10 mM • Pyrogallol 500 μM • C2 ceramide 100 μM • Camptothecin 10 μM
(§4) After 24 hours, medium was removed and assayed for LDH activity using the Promega cytotox 96 kit (catalog# G1780). Results were calculated as percent protection against toxin-induced toxicity.

[1] = test system: Primary rat oligodendrocyte progenitor cells; experiment: Oligodendrocyte toxicity assay, progenitor cells (OLP), SIN-1, LDH release; format: cell-based; conditions: compound 10 nm, 1 hour pretreatment; Sin-1 10 mM; LDH after 24 hours; oligodendrocyte progenitors
Description: as §1, §2, §3, §4

**Q.** For `N#CC(=C(/N)Sc1ccccc1N)/C(C#N)=C(\N)Sc1ccccc1N` [U-0126], which “effect of MEK inhibitor on the neuroprotection by the compounds” value (SK-N-SH cells) is on record?
**A.** inhibition of the neuroprotection

**Q.** Which results are given for `COc1ccc(-c2sc3cc(O)ccc3c2Oc2ccc(OCCN3CCCCC3)cc2)cc1` [Arzoxifen]?
**A.** % Protection (SIN-1*) OL 10 nm (mature oligodendrocytes): 8.237%; % Protection (SIN-1*) OLP 10 nm [1]: 1.485%
